Laboratory results taken from patent US10815210B2, “Benzocyclobutane derivatives useful as dual SGLT1 / SGLT2 modulators” (Janssen Pharmaceutica NV, priority 2016, dated 2020).
pIC50: −log10 of the molar value.

What was measured:
human SGLT2 = biological target: T1, human SGLT2 (Homo sapiens, UniProt P31639); assay: SGLT2 assay: Na-dependent 14C-AMG uptake in CHO-K1 cells stably expressing human SGLT2; format: cell-based; conditions: 500 μM AMG, 2 hours at 37° C.
T1 construct: expressed in transfected cells; host or cells: CHO-K1
T1 sequence (P31639 1-672): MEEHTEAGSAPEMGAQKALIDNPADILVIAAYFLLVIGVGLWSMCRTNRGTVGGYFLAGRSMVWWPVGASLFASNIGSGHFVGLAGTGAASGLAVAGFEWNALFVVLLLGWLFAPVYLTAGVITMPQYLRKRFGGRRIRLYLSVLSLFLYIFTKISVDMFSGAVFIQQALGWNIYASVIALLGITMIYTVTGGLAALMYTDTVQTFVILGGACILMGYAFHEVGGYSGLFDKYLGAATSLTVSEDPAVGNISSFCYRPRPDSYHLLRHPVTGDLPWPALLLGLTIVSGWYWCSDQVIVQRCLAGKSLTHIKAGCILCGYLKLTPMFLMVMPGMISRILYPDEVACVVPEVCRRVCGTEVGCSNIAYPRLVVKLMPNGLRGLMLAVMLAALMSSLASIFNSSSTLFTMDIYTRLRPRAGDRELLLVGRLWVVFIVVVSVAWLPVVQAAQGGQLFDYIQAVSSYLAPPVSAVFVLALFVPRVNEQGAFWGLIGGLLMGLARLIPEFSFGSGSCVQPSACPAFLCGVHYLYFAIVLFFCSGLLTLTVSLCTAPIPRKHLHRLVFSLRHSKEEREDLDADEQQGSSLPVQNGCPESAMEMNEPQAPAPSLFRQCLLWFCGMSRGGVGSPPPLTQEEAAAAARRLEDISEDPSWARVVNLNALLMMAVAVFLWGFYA
Description: (§1) SGLT1 and SGLT2 were cloned in form of cDNA from human small intestine (Genbank M24847), and from human kidney (Genbank M95549), respectively. Subsequently, each full cDNA was subcloned into pcDNA with each construct's integrity verified through follow-on sequencing. To generate CHO-K1 cells that stably express human SGLT1 or human SGLT2, CHO-K1 cells were transfected using DMRIE-C reagent (Life Technologies, Gaithersburg, Md.). Transfected cells were then selected in the presence of 500 μg/ml of the Geneticin (G418 Cellgro Catalog No. 30234-CI)
(§2) Individual clones were then characterized using the following cell-based assay for sodium-dependent glucose transport:
(§3) Inhibition of SGLT1 and SGLT2 activity was assessed in CHO K1 cells stably expressing either human SGLT1 or SGLT2, using the SGLT specific glucose analog methyl-glucopyranoside (Sigma Catalog No. M-9376). Cells were plated (45,000 cells/well) in white wall 96-well plates (COSTAR, Cat#3903) for 24 hours in growth medium, then a final concentration of 10 mM Na-Butyrate (ALDRICH Cat#30341-0) was added. The cells were incubated for 24 hours. On the day of the assay, cells were rinsed and treated with test compounds (at concentrations of 0.001 μM to 10 μM) in assay buffer (50 mM HEPES, 20 mM Tris base, 5 mM KCl, 1 mM MgCl2, 1 mM CaCl2 and 137 mM NaCl, pH 7.4) for 10 minutes. Cells were then incubated with ^14C-a-methyl-d-glucopyranoside (AMG, Amersham Catalog No. CFB 76), using 0.07 μCi per well in 500 μM AMG final concentration. The cells were incubated for 2 hours at 37° C. with 5% CO2 and washed two times with ice-cold Phosphate Buffer Solution (Cellgro Catalog No. 21030-CV). The cells were then solubilized by adding 60 μl of MICROSCINT™20 and the Na-dependent ^14C-AMG uptake was quantified by measuring radioactivity. Plates were counted in a TopCount (Packard, Meriden, Conn.)

human SGLT1 = biological target: T2, human SGLT1 (Homo sapiens, UniProt P13866); assay: SGLT1 assay: Na-dependent 14C-AMG uptake in CHO-K1 cells stably expressing human SGLT1; format: cell-based; conditions: 500 μM AMG, 2 hours at 37° C.
T2 construct: expressed in transfected cells; host or cells: CHO-K1
T2 sequence (P13866 1-664): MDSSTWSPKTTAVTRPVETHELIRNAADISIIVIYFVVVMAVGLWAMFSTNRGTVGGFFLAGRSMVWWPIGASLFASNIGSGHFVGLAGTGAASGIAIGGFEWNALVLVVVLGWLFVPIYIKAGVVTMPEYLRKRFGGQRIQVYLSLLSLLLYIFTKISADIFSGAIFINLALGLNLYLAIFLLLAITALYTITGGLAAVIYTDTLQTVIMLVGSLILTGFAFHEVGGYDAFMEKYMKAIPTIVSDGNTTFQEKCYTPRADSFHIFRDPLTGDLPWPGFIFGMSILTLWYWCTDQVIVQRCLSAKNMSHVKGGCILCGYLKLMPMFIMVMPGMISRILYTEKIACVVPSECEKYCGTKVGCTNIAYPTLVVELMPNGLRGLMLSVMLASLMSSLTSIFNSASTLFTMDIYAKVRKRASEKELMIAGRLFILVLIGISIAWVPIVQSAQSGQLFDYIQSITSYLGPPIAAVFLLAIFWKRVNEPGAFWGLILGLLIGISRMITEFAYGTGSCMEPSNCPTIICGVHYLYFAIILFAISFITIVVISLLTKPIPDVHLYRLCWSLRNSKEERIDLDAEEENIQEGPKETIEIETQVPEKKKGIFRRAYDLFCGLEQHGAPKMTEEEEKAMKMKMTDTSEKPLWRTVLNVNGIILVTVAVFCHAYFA
Description: as §1, §2, §3

| SMILES | pIC50 (human SGLT2) | pIC50 (human SGLT1) |
| --- | --- | --- |
| [2H]C([2H])(c1ccc2c(c1)CC2)c1cc([C@@H]2O[C@H](CO)[C@@H](O)[C@H](O)[C@H]2O)c(O)cc1C (single isomer, unassigned) [Compound 52] | 9.00 | 8.40 |
| [2H]C([2H])(c1ccc2c(c1)CC2)c1cc([C@@H]2O[C@H](CO)[C@@H](O)[C@H](O)[C@H]2O)ccc1Cl (single isomer, unassigned) [Compound 54] | 9.00 | 7.20 |
| Cc1ccc([C@@H]2O[C@H](CO)[C@@H](O)[C@H](O)[C@H]2O)cc1Cc1ccc2c(c1)CC2 [Compound 1, (2S,3R,4R,5S,6R)-2-(3-((1,2-dihydrocyclobutabenzen-4-yl)methyl)-4-methylphenyl)-6-(hydroxymethyl)-tetrahydro-2H-pyran-3,4,5-triol] | 9.00 | 7.48 |
| OC[C@H]1O[C@@H](c2ccc(Cl)c(Cc3ccc4c(c3)CC4)c2)[C@H](O)[C@@H](O)[C@@H]1O [Compound 2, (2S,3R,4R,5S,6R)-2-(4-chloro-3-((1,2-dihydrocyclobutabenzen-4-yl)methyl)phenyl)-6-(hydroxymethyl)-tetrahydro-2H-pyran-3,4,5-triol] | 9.00 | 7.35 |
| COc1ccc([C@@H]2O[C@H](CO)[C@@H](O)[C@H](O)[C@H]2O)cc1Cc1ccc2c(c1)CC2 [Compound 3, (2S,3R,4R,5S,6R)-2-(3-((1,2-dihydrocyclobutabenzen-4-yl)methyl)-4-methoxyphenyl)-6-(hydroxymethyl)-tetrahydro-2H-pyran-3,4,5-triol] | 8.52 | 7.41 |
| CCc1ccc([C@@H]2O[C@H](CO)[C@@H](O)[C@H](O)[C@H]2O)cc1Cc1ccc2c(c1)CC2 [Compound 4, (2S,3R,4R,5S,6R)-2-(3-((1,2-dihydrocyclobutabenzen-4-yl)methyl)-4-ethylphenyl)-6-(hydroxymethyl)-tetrahydro-2H-pyran-3,4,5-triol] | 8.52 | 7.74 |
| OC[C@H]1O[C@@H](c2ccc(C3CC3)c(Cc3ccc4c(c3)CC4)c2)[C@H](O)[C@@H](O)[C@@H]1O [Compound 5, (2S,3R,4R,5S,6R)-2-(4-cyclopropyl-3-((1,2-dihydrocyclobutabenzen-4-yl)methyl)phenyl)-6-(hydroxymethyl)-tetrahydro-2H-pyran-3,4,5-triol] | 8.30 | 7.49 |
| Cc1cc(O)c([C@@H]2O[C@H](CO)[C@@H](O)[C@H](O)[C@H]2O)cc1Cc1ccc2c(c1)CC2 [Compound 6, (2S,3R,4R,5S,6R)-2-(5-((1,2-dihydrocyclobutabenzen-4-yl)methyl)-2-hydroxy-4-methylphenyl)-6-(hydroxymethyl)-tetrahydro-2H-pyran-3,4,5-triol] | 9.00 | 8.40 |
| COc1cc(C)c(Cc2ccc3c(c2)CC3)cc1[C@@H]1O[C@H](CO)[C@@H](O)[C@H](O)[C@H]1O [Compound 7, (2S,3R,4R,5S,6R)-2-(5-((1,2-dihydrocyclobutabenzen-4-yl)methyl)-2-methoxy-4-methylphenyl)-6-(hydroxymethyl)-tetrahydro-2H-pyran-3,4,5-triol] | 9.00 | 7.32 |
| OC[C@H]1O[C@@H](c2cc(Cc3ccc4c(c3)CC4)c(Cl)cc2O)[C@H](O)[C@@H](O)[C@@H]1O [Compound 8, (2S,3R,4R,5S,6R)-2-(5-(bicyclo[4.2.0]octa-1(6),2,4-trien-3-ylmethyl)-4-chloro-2-hydroxyphenyl)-6-(hydroxymethyl)oxane-3,4,5-triol] | – | 8.30 |
| [2H]C([2H])(c1ccc2c(c1)CC2)c1cc([C@@H]2O[C@H](CO)[C@@H](O)[C@H](O)[C@H]2O)c(O)cc1Cl [Compound 55, (2S,3R,4R,S,6R)-2-(5-[bicyclo[4.2.0]octa-1(6),2,4-trien-3-yl(dideuterium)methyl]-4-chloro-2-hydroxyphenyl)-6-(hydroxymethyl)oxane-3,4,5-triol] | – | 8.15 |

Further lines, results first:

| pIC50 (human SGLT2) | pIC50 (human SGLT1) | SMILES |
| --- | --- | --- |
| 8.22 | 7.36 | [2H]C([2H])(c1ccc2c(c1)CC2)c1cc([C@@H]2O[C@H](CO)[C@@H](O)[C@H](O)[C@H]2O)ccc1OC (single isomer, unassigned) [Compound 57] |
| 8.52 | 6.85 | [2H]C([2H])(c1ccc2c(c1)CC2)c1cc([C@@H]2O[C@H](CO)[C@@H](O)[C@H](O)[C@H]2O)c(OC)cc1OC (single isomer, unassigned) [Compound 59] |
| 8.40 | 8.15 | [2H]C1([2H])Cc2ccc(Cc3cc([C@@H]4O[C@H](CO)[C@@H](O)[C@H](O)[C@H]4O)c(O)cc3C)cc21 (single isomer, unassigned) [Compound 61] |
| 8.05 | 6.77 | [2H]C1([2H])Cc2ccc(Cc3cc([C@@H]4O[C@H](CO)[C@@H](O)[C@H](O)[C@H]4O)ccc3Cl)cc21 (single isomer, unassigned) [Compound 62] |
| 8.40 | 7.03 | [2H]C1([2H])Cc2ccc(Cc3cc([C@@H]4O[C@H](CO)[C@@H](O)[C@H](O)[C@H]4O)ccc3OC)cc21 (single isomer, unassigned) [Compound 64] |
| 8.70 | 7.39 | [2H]C1([2H])Cc2ccc(Cc3cc([C@@H]4O[C@H](CO)[C@@H](O)[C@H](O)[C@H]4O)c(OC)cc3OC)cc21 (single isomer, unassigned) [Compound 68] |
| 9.00 | 7.21 | [2H]C1([2H])Cc2cc(Cc3cc([C@@H]4O[C@H](CO)[C@@H](O)[C@H](O)[C@H]4O)ccc3Cl)ccc21 (single isomer, unassigned) [Compound 81] |
| 8.10 | 7.52 | [2H]C1([2H])Cc2cc(Cc3cc([C@@H]4O[C@H](CO)[C@@H](O)[C@H](O)[C@H]4O)ccc3OC)ccc21 (single isomer, unassigned) [Compound 82] |
| 8.70 | 7.20 | [2H]C1([2H])Cc2cc(Cc3cc([C@@H]4O[C@H](CO)[C@@H](O)[C@H](O)[C@H]4O)c(OC)cc3OC)ccc21 (single isomer, unassigned) [Compound 84] |
| 8.70 | 7.96 | [2H]c1c(C)c(Cc2ccc3c(c2)CC3)cc([C@@H]2O[C@H](CO)[C@@H](O)[C@H](O)[C@H]2O)c1O (single isomer, unassigned) [Compound 121] |
| – | 7.82 | [2H]C([2H])([2H])Oc1cc(C)c(Cc2ccc3c(c2)CC3)cc1[C@@H]1O[C@H](CO)[C@@H](O)[C@H](O)[C@H]1O [Compound 110] |
| – | 7.89 | [2H]C([2H])([2H])Oc1cc(CC)c(Cc2ccc3c(c2)CC3)cc1[C@@H]1O[C@H](CO)[C@@H](O)[C@H](O)[C@H]1O [Compound 111] |
| – | 7.39 | [2H]C([2H])([2H])Oc1cc(C)c(C([2H])([2H])c2ccc3c(c2)CC3)cc1[C@@H]1O[C@H](CO)[C@@H](O)[C@H](O)[C@H]1O [Compound 119] |
